Test results: patent US10196425B2, “Peptide compositions” (RHYTHM PHARMACEUTICALS, INC., priority 2013, dated 2019)
Where two headings read alike, the source gives them in different places. Bridge positions count the residues as written; N and C are the ends. Square brackets hold non-standard residues; d marks the D form. Peptide text beside a SMILES is read from it. Pen = CC(C)(S)[C@H](N)C(=O)O; hCys = N[C@@H](CCS)C(=O)O

Legend:
Type in all cases: cell-based
MC3R = MC3R (Homo sapiens, UniProt P41968); experiment: cAMP assay (β-galactosidase reporter, cAMP Hunter), MC3R; settings: for Ratios of EC50 values MC ¾: EC50(MC3R)/EC50(MC4R)
From the text: (§1) cAMP Accumulation Measurement Via a β-Galactosidase (β-Gal) Reporter System
(§2) A chemiluminescence readout system that uses an enzyme fragment complementation (EFC) system with β-galactosidase (β-Gal) as the functional reporter system was used. This assay system for various melanocortin receptor systems is commercially available (cAMP Hunter GPCR assay system, Discoverx Corp, Fremont, Calif.). This assay utilizes the β-Gal enzyme that is split into two complementary portions; EA for Enzyme Acceptor and ED for Enzyme Donor. In the assay, the ED portion fused to cAMP is made to compete with cAMP generated by cells for binding to a cAMP-specific antibody. The EA is then added to form active β-Gal with any unbound ED-cAMP.
(§3) Briefly, 10000 cells per well are plated overnight and each well (cells incubated with 10 μl assay buffer) is then incubated with 4× serial concentration of the test compound in the cell assay buffer (5 μL) and cAMP antibody reagent (5 μL) for 30 min at 37° C. The cell lysis buffer (20 μL) containing ED-cAMP coupled enzyme fragment and the reporter substrate (Emerald II-Galacton Star, 5:1) is then added and incubated for 60 min at room temperature. Next, 20 μL of EA β-Gal fragment reagent is added.

MC5R = MC5R (Homo sapiens, UniProt P33032); experiment: cAMP assay (β-galactosidase reporter, cAMP Hunter), MC5R; settings: for Ratios of EC50 values MC 5/4: EC50(MC5R)/EC50(MC4R)
From the text: as §1, §2, §3

MC4R = MC4R (Homo sapiens, UniProt P32245); experiment: cAMP assay (β-galactosidase reporter, cAMP Hunter), MC4R
From the text: as §1, §2, §3

MC1R = MC1R (Homo sapiens, UniProt Q01726); experiment: cAMP assay (β-galactosidase reporter, cAMP Hunter), MC1R; settings: for Ratios of EC50 values MC ¼: EC50(MC1R)/EC50(MC4R)
From the text: as §1, §2, §3

[1] = agonist cAMP stimulation, read-out: cAMP Assay (EC-50) MC3R
[2] = agonist cAMP stimulation, read-out: cAMP Assay (EC-50) MC5R
[3] = agonist cAMP stimulation, read-out: cAMP Assay (EC-50) MC4R
[4] = agonist cAMP stimulation, read-out: cAMP Assay (EC-50) MC1R

Sequence of MC3R (P41968 whole entry): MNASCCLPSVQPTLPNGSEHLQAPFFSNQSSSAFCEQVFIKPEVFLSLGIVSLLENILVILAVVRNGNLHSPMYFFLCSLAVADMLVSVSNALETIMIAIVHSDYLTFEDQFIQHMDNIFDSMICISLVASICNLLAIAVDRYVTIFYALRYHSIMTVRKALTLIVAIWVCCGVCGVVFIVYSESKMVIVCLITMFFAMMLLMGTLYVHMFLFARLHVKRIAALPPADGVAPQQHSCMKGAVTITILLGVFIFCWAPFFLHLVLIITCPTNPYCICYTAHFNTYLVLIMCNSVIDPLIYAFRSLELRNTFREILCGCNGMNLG
Sequence of MC1R (Q01726 whole entry): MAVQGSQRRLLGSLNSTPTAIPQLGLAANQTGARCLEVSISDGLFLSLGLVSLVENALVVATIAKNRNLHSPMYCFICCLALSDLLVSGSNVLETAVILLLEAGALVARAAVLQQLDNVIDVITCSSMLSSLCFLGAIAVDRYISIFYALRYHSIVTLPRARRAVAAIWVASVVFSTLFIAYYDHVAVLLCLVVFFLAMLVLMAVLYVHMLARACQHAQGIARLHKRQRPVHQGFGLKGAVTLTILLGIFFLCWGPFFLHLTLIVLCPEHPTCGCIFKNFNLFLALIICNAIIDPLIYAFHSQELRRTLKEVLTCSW
Sequence of MC5R (P33032 whole entry): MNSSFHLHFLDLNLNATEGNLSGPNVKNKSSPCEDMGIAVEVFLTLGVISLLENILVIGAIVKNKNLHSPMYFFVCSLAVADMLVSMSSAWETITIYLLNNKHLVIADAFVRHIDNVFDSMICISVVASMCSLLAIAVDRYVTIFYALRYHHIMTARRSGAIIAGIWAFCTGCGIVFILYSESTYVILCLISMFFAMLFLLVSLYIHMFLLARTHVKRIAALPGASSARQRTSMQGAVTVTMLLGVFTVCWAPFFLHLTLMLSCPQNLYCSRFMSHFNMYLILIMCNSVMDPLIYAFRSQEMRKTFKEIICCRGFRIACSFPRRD
Sequence of MC4R (P32245 whole entry): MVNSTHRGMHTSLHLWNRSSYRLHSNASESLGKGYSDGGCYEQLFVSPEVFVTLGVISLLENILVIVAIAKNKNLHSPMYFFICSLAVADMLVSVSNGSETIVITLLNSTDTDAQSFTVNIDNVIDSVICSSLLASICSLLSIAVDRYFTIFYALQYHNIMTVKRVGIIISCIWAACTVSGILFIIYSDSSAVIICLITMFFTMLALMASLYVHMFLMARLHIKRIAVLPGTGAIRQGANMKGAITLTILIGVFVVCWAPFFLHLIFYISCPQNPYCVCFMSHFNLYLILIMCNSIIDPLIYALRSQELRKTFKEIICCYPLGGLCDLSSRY

Compound | Ratios of EC50 values MC ¾ (MC3R) | EC50 (MC3R; [1]) | Ratios of EC50 values MC 5/4 (MC5R) | EC50 (MC5R; [2]) | EC50 (MC4R; [3]) | Ratios of EC50 values MC ¼ (MC1R) | EC50 (MC1R; [4]) | EC50 (MC3R) | EC50 (MC5R) | EC50 (MC4R) | EC50 (MC1R)
CC(=O)N[C@@H](CCCNC(=N)N)C(=O)N[C@H]1CCSSC[C@@H](C(N)=O)NC(=O)[C@H](Cc2c[nH]c3ccccc23)NC(=O)[C@H](CCCNC(=N)N)NC(=O)[C@@H](Cc2ccccc2)NC(=O)[C@@H](C)NC1=O [Compound 16, Ac-Arg-cyclo[hCys-D-Ala-D-Phe-Arg-Trp-Cys]-NH2] (Ac-R[hCys][dA][dF]RWC-NH2; disulfide 2-7) | 420 | 3160 nM | >1338 | > 10000 nM | 7.5 nM | 120 | 888 nM | – | – | – | –
CC(=O)N[C@@H](CCCNC(=N)N)C(=O)N[C@H]1CCSSC(C)(C)[C@@H](C(N)=O)NC(=O)[C@H](Cc2c[nH]c3ccccc23)NC(=O)[C@H](CCCNC(=N)N)NC(=O)[C@@H](Cc2ccccc2)NC(=O)[C@@H](C)NC1=O [Compound 17, Ac-Arg-cyclo[hCys-D-Ala-D-Phe-Arg-Trp-Pen]-NH2] (Ac-R[hCys][dA][dF]RW[Pen]-NH2; disulfide 2-7) | 17 | 233 nM | 159 | 2180 nM | 13.7 nM | 15 | 195 nM | – | – | – | –
CC(=O)N[C@@H](CCC(=O)O)C(=O)N[C@H]1CSSC[C@@H](C(N)=O)NC(=O)[C@H](Cc2c[nH]c3ccccc23)NC(=O)[C@H](CCCNC(=N)N)NC(=O)[C@@H](Cc2ccccc2)NC(=O)[C@H](Cc2c[nH]cn2)NC(=O)[C@H](C)NC1=O [Compound 22, Ac-Glu-cyclo[Cys-Ala-His-D-Phe-Arg-Trp-Cys]-NH2] (Ac-ECAH[dF]RWC-NH2; disulfide 2-8) | >20 | – | >2563 | – | – | >3 | – | 9.9 nM | 1280 nM | < 0.5 nM | 1.7 nM
